Assay results as given in patent publication US20090093517A1, “BIS1,2,3,4-TETRAHYDROISOQUINOLINE DERIVATIVES AND THEIR USES AS PHARMACEUTICALS” (UNIVERSITE DE LIEGE, priority 2006, published 2009).

What follows are compounds tested on apamin-sensitive sites of the SK channels (assay: Competition binding between 125I-apamin and bis-tetrahydroisoquinoline derivatives on rat cortical synaptosomes). Details: 10 μM compound; ±10 pM 125I-apamin; rat cortical synaptosomes, 1 h at 0° C.
Experimental: These experiments are used to evaluate the potency of the bis-tetrahydroisoquinoline derivatives to interact with the apamin-sensitive sites of the SK channels, the selected target for which a blockade is expected to be useful in the treatment of Alzheimer's disease, Parkinson's disease, schizophrenia, cognitive dysfunction, or depression. Two reference compounds are also tested for comparison
Rats (male Wistar, ±250 g) were killed by decapitation and the brains were quickly removed and kept on ice during dissection. Crude cortex was dispersed in 0.32 M sucrose by using a Pottero homogenizer. After a first centrifugation at 1500×g for 10 min, the supernatant was centrifuged at 25000×g for 10 min. The resulting pellet was dispersed in 5 mL 0.32 M sucrose to be aliquoted. Protein concentration was determined by the method of Hartree with bovine serum albumin as a standard.^36
The buffer consisted of a 10 mM Tris-HCl (pH 7.5) solution containing 5.4 mM KCl and 0.1% bovine serum albumin. The radioligand was ^125I-apamin (Perkin-Elmer, Specific activity 81.4 TBq mmol^−1). Glass fibre filters (Whatman GF/C) used in these experiments were coated for 1 h in 0.5% polyethylenimine and then washed with 2.5 mL of the ice-cold buffer just before use. Binding experiments were always terminated as follows. Aliquots were filtered under reduced pressure through Whatman filters. Filters were rapidly washed twice with 2.5 mL of buffer. The radioactivity remaining on the filter was evaluated with a Packard Tri-Carb 1600TR liquid scintillation analyser with an efficacy of 69%. ^125I-apamin binding to the filters was also estimated in the absence of synaptosomes. This binding was also substracted from the total binding. Curve fitting was carried out using GraphPad Prism.
Saturation Binding Experiments—Synaptosomes (0.2 mg of protein/mL) were incubated with increasing concentrations of ^125I-apamin (25 μL) with 975 μL of incubation buffer for 1 h at 0° C. Samples were then filtered on Whatman GF/C filter and the radioactivity was measured as described above. Non specific binding was determined in parallel experiments in the presence of an excess of unlabeled apamin (0.1 μM) and subtracted from the total binding to obtain the specific binding.
Competition Experiments between ^125I-apamin and Bis-tetrahydroisoquinoline derivatives—Synaptosomes (0.2 mg of protein/mL) were incubated for 1 h at 0° C. with ±10 pM of ^125I-apamin (25 μL) and nine concentrations of bis-tetrahydroisoquinoline derivatives (10^−4 to 10^−7 M). Non specific binding was determined in the presence of an excess of unlabeled apamin (0.1 μM). Samples were then filtered on Whatman filter and the radioactivity was measured as described above.
COc1ccc(C[C@H]2c3cc(OC)c(OC)cc3CC[N+]2(C)C)cc1OC [NML, N-methyl-laudanosine, reference compound] was tested, and the “% of 125I-apamin displaced at 10 μM” value was 54%.
“m-Bis[1-(2-methyl-1,2,3,4-tetrahydroisoquinolyl)]-xylene hydrochloride [Compound 4k]” was tested, and the “% of 125I-apamin displaced at 10 μM” value was 29%.
With “m-bis[1-(6,7,8-trimethoxy-2-methyl-1,2,3,4-tetrahydroisoquinolyl)]-xylene hydrochloride [Compound 4q]” the “% of 125I-apamin displaced at 10 μM” value was 60%.
In the case of “m-bis[1-(6,7-dimethoxy-2-methyl-1,2,3,4-tetrahydroisoquinolyl)]-xylene hydrochloride [Compound 4n]”, the “% of 125I-apamin displaced at 10 μM” value is reported as 74%.
With “o-bis[1-(2-methyl-1,2,3,4-tetrahydroisoquinolyl)]-xylene hydrochloride [Compound 4j]” the “% of 125I-apamin displaced at 10 μM” value was 19%.
With “o-bis[1-(6,7,8-trimethoxy-2-methyl-1,2,3,4-tetrahydroisoquinolyl)]-xylene hydrochloride [Compound 4p]” the “% of 125I-apamin displaced at 10 μM” value was 28%.
“o-bis[1-(6,7-dimethoxy-2-methyl-1,2,3,4-tetrahydroisoquinolyl)]-xylene hydrochloride [Compound 4m]” was tested, and the “% of 125I-apamin displaced at 10 μM” value was 62%.
In the case of “p-bis[1-(2-methyl-1,2,3,4-tetrahydroisoquinolyl)]-xylene hydrochloride [Compound 4l]”, the “% of 125I-apamin displaced at 10 μM” value is reported as 27%.
For “p-bis[1-(6,7,8-trimethoxy-2-methyl-1,2,3,4-tetrahydroisoquinolyl)]-xylene [Compound 4r]”, the “% of 125I-apamin displaced at 10 μM” value was 51%.

Same assay, conditions: separated stereoisomers; rat cortical apamin sensitive sites; 125I-apamin
With Cc1cc(N)c2ccccc2[n+]1CCCCCCCCCC[n+]1c(C)cc(N)c2ccccc21 [DQ+, Dequalinium, reference compound] the Ki was 0.221 ± 0.011 µM.
